Source: paper PMC12322260, “Anticancer activity of triterpene glycosides from the sea star Solaster pacificus” (Scientific Reports, 2025)
“And” between values parts separate entries of the source, which are not always exact repeats. Identical values can stand only once.

How the values were obtained:
Format in all cases: cell-based, human
22Rv1 cells [1] = assay: Drug combination MTT assay, SynergyFinder ZIP analysis; details: 22Rv1, 48 h
Experimental: (§1) Fig. 5 Effects of CuC1 in combination with taxanes and platinum agents. PC3-DR and 22Rv1 cells were co-treated with cisplatin (Cis), carboplatin (Carbo), docetaxel (Doce), or cabazitaxel (Caba) in combination with CuC1 at the indicated concentrations for 48 h. Cellular viability was evaluated using the MTT assay (number of biological replicates n = 3.) and is represented in the Supplementary Table S2. The cytotoxic effects were further analyzed, and 3D heat maps were constructed using SynergyFinder 3.0 software. The drug effects in combination (synergistic, additive, or antagonistic) were analyzed and visualized using the ZIP algorithm and are indicated by δ-score. δ > 10: Synergistic interactions (dark red area); […]: additive effect; δ < − 10: Antagonistic interactions (dark green area). A ZIP synergy score represents a mean δ overall the concentration range used.
(§2) The effect of combinational treatment with established chemotherapies was evaluated as previously reported^54. In brief, cells were exposed to individual drugs of their combinations for 48 h, and the viability was measured by MTT assay and was then analyzed using SynergyFinder 3.0 software (https://synergyfinder.fimm.fi) and the ZIP score algorithm. Statistical analysis was conducted automatically by the software using its inbuilt algorythms based on the input data type and size.

PC3-DR cells = assay: as above; details: 48 h
Experimental: as §1, §2

RWPE-1 cells = assay: MTT cytotoxicity assay; details: Homo sapiens; RWPE-1, 48 h, mean ± SD
From the text: (§3) The cell lines were purchased from ATCC (Manassas, VA, USA) or ECACC (Salisbury, UK). The following cell lines were used: Human prostate cancer cells LNCaP (ATCC; RRID:CVCL_0395), VCaP (ECACC; RRID:CVCL_2235), 22Rv1 (ATCC; RRID:CVCL_1045), PC3 (ATCC; RRID:CVCL_0035), and DU145 (ATCC; RRID:CVCL_0105); human prostate non-cancer cells PNT2 (ATCC; RRID:CVCL_2164) and RWPE-01 (ATCC; RRID:CVCL_3791). Human non-cancer embryonic kidney cells HEK293T (ECACC; RRID:CVCL_0063) and human fibroblast cells MRC-9 (ECACC; RRID:CVCL_2629). The docetaxel-resistant cells PC3-DR were generated by long-term treatment of human prostate cancer PC3 cells with sublethal concentrations of docetaxel as previously described[32] and were provided by Prof. Z. Culig (Innsbruck Medical University, Austria). All cell lines were recently authenticated by a commercial service (Multiplexion GmbH, Heidelberg, Germany) and were cultured as previously described[58],[59]. Cells were kept in culture for a maximum of three months and were routinely examined for bacterial, fungal, and mycoplasma infections.

MRC-9 cells = assay: MTT cytotoxicity assay; details: Homo sapiens, MRC9; MRC-9, 48 h, mean ± SD
From the text: as §3

VCaP cells = assay: MTT cytotoxicity assay; details: Homo sapiens, 48 h, mean ± SD
From the text: as §3

DU145 cells = assay: MTT cytotoxicity assay; details: Homo sapiens, DU-145; DU145, 48 h, mean ± SD
From the text: as §3

22Rv1 cells [2] = assay: Western blotting of apoptotic markers
Experimental: Fig. 3 Functional kinome profiling of STKs (serine/threonine kinases) in 22Rv1 cells and validation of results. (a) Expression of apoptotic markers. The cells were treated with CuC1 for the indicated time, and the expression of proteins was analyzed by Western blotting. (b, c) Functional kinome profiling. A heatmap displaying log2-transformed phosphorylation levels of 99 analyzed STK substrate peptides (b) and upstream kinase analysis, which predicted kinases affected by CuC1 (c). Values of the normalized kinase statistics represented by bars, where log2 < 0 indicates decreased kinase activity and log2 > 0 denotes increased activity. […] 22Rv1 cells were treated with CuC1 for 2 h and the MAPK expression was analyzed by Western blotting. β-actin was used as a loading control. The band intensity of the protein of interest was quantified using Image Lab software and normalized to the band intensity β-actin (a), or to the band intensity of non-phospho MAPK (d), and is indicated by red numbers. […]
Western blotting was performed as previously described. […] Proteins were transferred on a PVDF membrane and detected using specified primary and secondary antibodies. The protein signals were visualized and detected using the ECL chemiluminescence system (Thermo Scientific, Rockford, IL, USA). […] The signal (band) intensity was quantified using Image Lab v. […]

CO[C@@H]1[C@@H](O)[C@H](O[C@@H]2[C@@H](O)[C@H](O[C@H]3[C@H](O)[C@@H](O[C@@H]4OC[C@@H](O)[C@H](O)[C@H]4O)[C@H](O[C@H]4[C@H](O[C@H]5CC[C@]6(C)[C@@H]7CCC89C(=O)O[C@@](C)(/C=C\C=C(C)C)[C@H]8[C@@H](OC(C)=O)C[C@@]9(C)C7=CC[C@H]6C5(C)C)OC[C@@H](O)[C@@H]4O)O[C@@H]3C)O[C@H](CO)[C@H]2O)OC[C@H]1O (stereo partly drawn) [CuC1, cucumarioside C1]
Response (% of effect) (22Rv1 cells [1]; CuC1 0.25 μM alone): 31.1% and 43.16% and 29.95% and 34.58% and 29.34% and 26.82% and 33.12% and 30.57%
Response (% of effect) (22Rv1 cells [1]; CuC1 0.5 μM alone): 81.71% and 82.23% and 73.42% and 77.37% and 76.17% and 72.77% and 72.16% and 76.9194%
Response (% of effect) (22Rv1 cells [1]; CuC1 1 μM alone): 95.8597% and 95.08% and 89.09% and 94.3% and 94.37% and 95.8% and 97.07% and 93.71%
Response (% of effect) (PC3-DR cells; CuC1 1 μM alone): 33.69% and 25.1% and 26.58% and 38.2% and 34.475% and 30.33% and 41.47% and 24.44%
Response (% of effect) (PC3-DR cells; CuC1 2 μM alone): 61.45% and 55.31% and 54.31% and 72.9% and 63.58% and 68.91% and 61.135% and 65.14%
Response (% of effect) (PC3-DR cells; CuC1 4 μM alone): 90.21% and 89.15% and 83.68% and 93.87% and 94.47% and 92.06% and 92.89% and 96.86%
IC50 (RWPE-1 cells): 554 ± 105 nM
IC50 (MRC-9 cells): 959 ± 248 nM
IC50 (VCaP cells): 472 ± 65 nM
IC50 (DU145 cells): 3240 ± 340 nM
signs of cell death (apoptotic markers) (22Rv1 cells [2]; 22Rv1, 0.5 μM, 2 h): did not induce any signs of cell death
apoptotic markers (22Rv1 cells [2]; 22Rv1, 24 h of treatment): apoptotic markers such as cleaved PARP and caspase-3 were detected
